# Test results: US20140072573A1, “METHOD OF TREATING RHEUMATOID ARTHRITIS” (Institut National de la Sante et de la Recherche Medicale …, priority 2012, published 2014)
# Entries after “also recorded” stand apart in the source; their conditions may differ.
# Key:
# Assay type in all cases: cell-based, human
# VE-cadherin [1] = experiment: VE-cadherin tyrosine phosphorylation in HUVEC lysates, immunoprecipitation and phosphotyrosine western blot; settings: 50 μM, TNFα 100 ng/ml
# Experimental: (§1) Cell culture, extraction and immunoprecipitation: Endothelial cells were obtained from human umbilical vein (HUVECs) and grown to reach confluence in M199 medium supplemented with 10% fetal bovine serum (FCS), 2% Low Serum Growth Supplement LSGS (Cascade Biologics, USA) as previously described (Garnier-Raveaud et al., 2001). The 80% confluent HUVECs (passages 2 or 4) were used for most experiments. Confluent cells in 60 mm dishes were serum-starved in 1% fetal calf serum in M 199 for 24 h prior to testing. Before TNFα stimulation the cells were serum-starved for 2 hours, and then pre-treated for 15 min with sodium pervanadate (10 μM) and/or inhibitors as mentioned in text and figure legends. HUVECs were then stimulated with different concentrations of TNFα for various lengths of time as indicated. Otherwise, in most parts of this study, precisely in inhibition experiments TNFα was used at high concentration (i.e 100 ng/mL). As the inhibitors were diluted in dimethyl-sulfoxide (DMSO), control cells were systematically treated with DMSO 0.1% in any inhibition experiment.
# Cells stimulation was stopped by medium collection and addition of 500 μl of ice-cold buffer A. The cells were harvested, homogenized and sonicated for 20 seconds. […] The protein concentration was measured using the micro-bicinchoninic acid protein assay and cell lysates were stored at −80° C. before use. […]
# VE-cadherin [2] = experiment: VE-cadherin cytoplasmic fragment (VE-cyto) and 125 kDa full length protein in HUVEC extracts, western blot; settings: for effect on TNFα-induced VE-cyto generation: L685 present
# Experimental: as §1
# Cells stimulation was stopped by medium collection and addition of 500 μl of ice-cold buffer A. The cells were harvested, homogenized and sonicated for 20 seconds. Cell lysates were collected after centrifugation for 15 min at […] at 14,000 g. The protein concentration was measured using the micro-bicinchoninic acid protein assay and cell lysates were stored at −80° C. before use.
# (§2) Western blotting: Proteins were resolved by SDS-PAGE and transferred to nitrocellulose.
# VE-cadherin [3] = experiment: VE-cadherin extracellular fragment (VE-90) release in HUVEC conditioned media, western blot; settings: for effect on TNFα-induced VE-90 release: 15 min pre-treatment, TNFα 100 ng/ml 45 min
# Experimental: as §1
# For conditioned medium analysis, the medium was collected and centrifuged for 15 minutes at 14,000 g at 4° C. The resulting supernatant was collected and proteins were concentrated by trichloro acetic acid precipitation (10%) overnight. After centrifugation at 14,000 g for 30 min, the pellet was re-suspended in Tris 50 mM (pH 11) and analyzed by SDS-PAGE and Western blotting.
# as §2
# HUVECs = experiment: Cell viability of treated HUVECs
molecule,measurement,setting,value
O=c1c(-c2ccc(O)cc2)coc2cc(O)cc(O)c12 [genistein],effect on TNFα-induced VE-cadherin tyrosine phosphorylation,VE-cadherin [1],inhibited
same,effect on TNFα-induced VE-cyto generation,VE-cadherin [2]; 50 μM pre-treatment,strongly impaired
same,effect on VE-cyto generation with or without pervanadate pre-treatment,"VE-cadherin [2]; both conditions (pervanadate pre-treated or not), TNFα",still decreased
same,effect on TNFα-induced VE-90 release,VE-cadherin [3]; 50 μM,strongly decreased
same,cell viability,HUVECs; 50 μM,without affecting cell viability
sodium pervanadate,effect on VE-cyto generation upon cytokine treatment,VE-cadherin [2]; pervanadate pre-treated versus non pre-treated HUVECs,tremendous increase
TNFα,appearance of VE-cyto upon TNFα challenge,"VE-cadherin [2]; HUVEC extracts, γ-secretase inhibitor L685 present, TNFα 100 ng/ml",clearly detected
same,VE-90 release versus TNFα concentration,"VE-cadherin [3]; HUVECs, TNFα 0 up to 10 ng/ml, 45 min",increased in a dose-dependent manner; also recorded: dose-dependent release
same,time of TNFα stimulation after which VE-90 was detected,"VE-cadherin [3]; HUVECs, TNFα 100 ng/ml",10 min
same,VE-90 release in conditioned media over time,"VE-cadherin [3]; HUVECs, TNFα 100 ng/ml, 5 to 60 min",time-dependent release; also recorded: increased in a time-dependent manner up to 60 min
same,low TNFα concentration at which VE-90 release was early detected,"VE-cadherin [3]; HUVECs, dose-response 0 up to 10 ng/ml, 45 min",0.5 ng/mL
CNC(=O)[C@H](Cc1c[nH]c2ccccc12)NC(=O)[C@@H](CC(=O)NO)CC(C)C [GM6001],effect on TNFα-induced VE-cyto generation,VE-cadherin [2]; 10 μM pre-treatment,almost completely abrogated
same,effect on TNFα-induced VE-90 release,VE-cadherin [3]; 10 μM,drastically decreased
same,cell viability,HUVECs; 10 μM,without affecting cell viability
CC(C)(C)n1nc(-c2ccc(Cl)cc2)c2c(N)ncnc21 [PP2],effect on TNFα-induced VE-cyto generation,VE-cadherin [2]; 10 μM pre-treatment,strongly impaired
same,effect on TNFα-induced VE-90 release,VE-cadherin [3]; 10 μM,strongly decreased
same,cell viability,HUVECs; 10 μM,without affecting cell viability
